# In the kinase profiling compilation of Christmann-Franck et al. (2016):
# What was measured:
# Test in all cases: KINOMEscan competition binding
# Details in all cases: compound 10.0 µM
# NUAK2 (human) = NUAK2 (human) (UniProt Q9H093)
# CAMK2D (human) = CAMK2D (human) (UniProt Q13557)
# SRPK3 (human) = SRPK3 (human) (UniProt Q9UPE1)
# MAP3K9 (human) = MAP3K9 (human) (UniProt P80192)
# AAK1 (human) = AAK1 (human) (UniProt Q2M2I8)
# NLK (human) = NLK (human) (UniProt Q9UBE8)
# RPS6KA2 KD2 (human) = RPS6KA2 KD2 (human) (UniProt Q15349)
# NTRK2 (human) = NTRK2 (human) (UniProt Q16620)
# STK32B (human) = STK32B (human) (UniProt Q9NY57)
# STK32C (human) = STK32C (human) (UniProt Q86UX6)
# CLK4 (human) = CLK4 (human) (UniProt Q9HAZ1)
# BTK (human) = BTK (human) (UniProt Q06187)
# AKT3 (human) = AKT3 (human) (UniProt Q9Y243)
# PTK2 (human) = PTK2 (human) (UniProt Q05397)
# ULK3 (human) = ULK3 (human) (UniProt Q6PHR2)
# ABL2 (human) = ABL2 (human) (UniProt P42684)
# EPHA7 (human) = EPHA7 (human) (UniProt Q15375)
# PTK2B (human) = PTK2B (human) (UniProt Q14289)
# EPHB4 (human) = EPHB4 (human) (UniProt P54760)
# RAF1 (human) = RAF1 (human) (UniProt P04049)
# STK4 (human) = STK4 (human) (UniProt Q13043)
# PLK4 (human) = PLK4 (human) (UniProt O00444)
# NTRK1 (human) = NTRK1 (human) (UniProt P04629)
# GSK3A (human) = GSK3A (human) (UniProt P49840)
# FGFR4 (human) = FGFR4 (human) (UniProt P22455)
# YES1 (human) = YES1 (human) (UniProt P07947)
# PKN1 (human) = PKN1 (human) (UniProt Q16512)
# SRC (human) = SRC (human) (UniProt P12931)
# MARK1 (human) = MARK1 (human) (UniProt Q9P0L2)
# PIK3CG (human) = PIK3CG (human) (UniProt P48736)
# [1] = biological target: TYK2 JH2 pseudokinase (human) (UniProt P29597)
# MAP4K3 (human) = MAP4K3 (human) (UniProt Q8IVH8)
# Chain of PTK2B (human) (Q14289 whole entry, looked up): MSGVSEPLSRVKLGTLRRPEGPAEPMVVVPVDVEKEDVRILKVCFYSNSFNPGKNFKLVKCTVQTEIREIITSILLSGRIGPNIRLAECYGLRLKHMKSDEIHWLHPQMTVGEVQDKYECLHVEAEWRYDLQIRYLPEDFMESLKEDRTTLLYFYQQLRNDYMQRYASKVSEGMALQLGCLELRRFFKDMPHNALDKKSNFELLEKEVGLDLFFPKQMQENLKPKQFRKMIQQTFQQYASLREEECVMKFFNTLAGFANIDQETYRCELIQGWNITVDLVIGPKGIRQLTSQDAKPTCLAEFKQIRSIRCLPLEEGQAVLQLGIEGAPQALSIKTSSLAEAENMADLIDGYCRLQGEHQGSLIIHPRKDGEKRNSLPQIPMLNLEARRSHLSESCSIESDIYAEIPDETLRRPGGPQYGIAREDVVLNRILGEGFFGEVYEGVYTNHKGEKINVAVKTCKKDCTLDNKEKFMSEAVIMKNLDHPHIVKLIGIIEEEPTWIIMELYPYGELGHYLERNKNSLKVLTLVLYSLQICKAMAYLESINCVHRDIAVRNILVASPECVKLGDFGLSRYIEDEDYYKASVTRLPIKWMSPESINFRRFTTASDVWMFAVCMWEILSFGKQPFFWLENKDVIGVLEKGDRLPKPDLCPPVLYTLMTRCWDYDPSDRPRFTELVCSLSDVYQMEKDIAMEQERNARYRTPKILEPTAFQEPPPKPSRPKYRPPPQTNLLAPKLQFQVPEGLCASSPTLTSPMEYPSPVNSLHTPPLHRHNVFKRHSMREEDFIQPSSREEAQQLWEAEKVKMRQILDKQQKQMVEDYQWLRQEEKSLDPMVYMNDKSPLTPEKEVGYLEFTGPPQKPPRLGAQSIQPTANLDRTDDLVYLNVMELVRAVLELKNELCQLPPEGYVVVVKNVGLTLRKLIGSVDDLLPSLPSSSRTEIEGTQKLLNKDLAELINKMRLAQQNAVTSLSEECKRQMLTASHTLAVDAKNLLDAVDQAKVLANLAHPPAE
# Chain of CAMK2D (human) (Q13557 whole entry, looked up): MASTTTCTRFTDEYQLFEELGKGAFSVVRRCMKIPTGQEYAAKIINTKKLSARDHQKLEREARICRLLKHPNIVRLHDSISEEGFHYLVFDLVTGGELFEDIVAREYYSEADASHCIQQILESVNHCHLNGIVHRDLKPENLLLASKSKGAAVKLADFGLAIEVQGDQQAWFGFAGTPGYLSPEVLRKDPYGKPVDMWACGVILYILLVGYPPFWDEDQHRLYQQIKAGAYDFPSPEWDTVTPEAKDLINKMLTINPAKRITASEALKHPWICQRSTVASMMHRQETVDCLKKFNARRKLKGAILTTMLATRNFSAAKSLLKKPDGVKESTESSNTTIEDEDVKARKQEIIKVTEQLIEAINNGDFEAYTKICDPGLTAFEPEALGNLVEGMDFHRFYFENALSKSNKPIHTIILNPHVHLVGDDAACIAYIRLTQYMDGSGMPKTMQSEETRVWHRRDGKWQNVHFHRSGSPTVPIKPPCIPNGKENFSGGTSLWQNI
# Chain of RAF1 (human) (P04049 whole entry, looked up): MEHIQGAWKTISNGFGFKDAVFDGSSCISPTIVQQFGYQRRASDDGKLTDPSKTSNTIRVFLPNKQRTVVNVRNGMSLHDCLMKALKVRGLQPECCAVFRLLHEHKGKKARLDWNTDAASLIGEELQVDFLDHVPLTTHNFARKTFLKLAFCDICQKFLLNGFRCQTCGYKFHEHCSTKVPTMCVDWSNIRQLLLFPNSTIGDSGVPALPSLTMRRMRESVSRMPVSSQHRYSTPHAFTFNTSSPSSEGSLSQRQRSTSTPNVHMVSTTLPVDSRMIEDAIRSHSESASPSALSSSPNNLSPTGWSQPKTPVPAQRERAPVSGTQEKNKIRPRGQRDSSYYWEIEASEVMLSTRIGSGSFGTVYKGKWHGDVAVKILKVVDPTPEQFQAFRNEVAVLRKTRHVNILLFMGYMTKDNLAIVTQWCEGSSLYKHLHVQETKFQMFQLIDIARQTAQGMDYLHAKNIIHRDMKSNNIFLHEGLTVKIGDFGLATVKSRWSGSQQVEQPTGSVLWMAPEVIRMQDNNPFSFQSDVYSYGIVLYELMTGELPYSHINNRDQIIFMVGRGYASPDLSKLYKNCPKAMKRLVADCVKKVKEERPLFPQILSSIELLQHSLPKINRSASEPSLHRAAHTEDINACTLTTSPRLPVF
# Chain of NTRK2 (human) (Q16620 whole entry, looked up): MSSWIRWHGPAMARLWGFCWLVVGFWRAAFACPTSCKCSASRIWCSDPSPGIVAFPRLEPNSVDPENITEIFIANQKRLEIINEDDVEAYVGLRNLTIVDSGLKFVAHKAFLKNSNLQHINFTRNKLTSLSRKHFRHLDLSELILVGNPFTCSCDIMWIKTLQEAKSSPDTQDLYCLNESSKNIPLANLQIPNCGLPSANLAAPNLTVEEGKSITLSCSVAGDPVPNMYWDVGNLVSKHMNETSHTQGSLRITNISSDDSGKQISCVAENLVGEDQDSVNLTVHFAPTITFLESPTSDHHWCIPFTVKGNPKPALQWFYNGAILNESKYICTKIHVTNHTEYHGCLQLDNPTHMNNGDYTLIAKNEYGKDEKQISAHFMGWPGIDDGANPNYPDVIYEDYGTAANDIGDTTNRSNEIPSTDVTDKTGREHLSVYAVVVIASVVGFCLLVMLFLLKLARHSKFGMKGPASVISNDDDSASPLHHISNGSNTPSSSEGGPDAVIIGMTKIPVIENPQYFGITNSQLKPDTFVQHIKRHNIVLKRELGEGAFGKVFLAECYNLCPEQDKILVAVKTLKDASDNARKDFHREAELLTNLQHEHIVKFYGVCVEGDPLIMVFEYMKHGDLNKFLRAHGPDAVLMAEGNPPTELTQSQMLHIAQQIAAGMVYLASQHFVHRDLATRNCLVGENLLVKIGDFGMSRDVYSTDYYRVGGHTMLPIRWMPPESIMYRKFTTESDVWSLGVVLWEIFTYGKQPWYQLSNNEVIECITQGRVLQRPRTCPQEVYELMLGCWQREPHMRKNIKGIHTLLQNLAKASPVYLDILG
# Chain of EPHB4 (human) (P54760 whole entry, looked up): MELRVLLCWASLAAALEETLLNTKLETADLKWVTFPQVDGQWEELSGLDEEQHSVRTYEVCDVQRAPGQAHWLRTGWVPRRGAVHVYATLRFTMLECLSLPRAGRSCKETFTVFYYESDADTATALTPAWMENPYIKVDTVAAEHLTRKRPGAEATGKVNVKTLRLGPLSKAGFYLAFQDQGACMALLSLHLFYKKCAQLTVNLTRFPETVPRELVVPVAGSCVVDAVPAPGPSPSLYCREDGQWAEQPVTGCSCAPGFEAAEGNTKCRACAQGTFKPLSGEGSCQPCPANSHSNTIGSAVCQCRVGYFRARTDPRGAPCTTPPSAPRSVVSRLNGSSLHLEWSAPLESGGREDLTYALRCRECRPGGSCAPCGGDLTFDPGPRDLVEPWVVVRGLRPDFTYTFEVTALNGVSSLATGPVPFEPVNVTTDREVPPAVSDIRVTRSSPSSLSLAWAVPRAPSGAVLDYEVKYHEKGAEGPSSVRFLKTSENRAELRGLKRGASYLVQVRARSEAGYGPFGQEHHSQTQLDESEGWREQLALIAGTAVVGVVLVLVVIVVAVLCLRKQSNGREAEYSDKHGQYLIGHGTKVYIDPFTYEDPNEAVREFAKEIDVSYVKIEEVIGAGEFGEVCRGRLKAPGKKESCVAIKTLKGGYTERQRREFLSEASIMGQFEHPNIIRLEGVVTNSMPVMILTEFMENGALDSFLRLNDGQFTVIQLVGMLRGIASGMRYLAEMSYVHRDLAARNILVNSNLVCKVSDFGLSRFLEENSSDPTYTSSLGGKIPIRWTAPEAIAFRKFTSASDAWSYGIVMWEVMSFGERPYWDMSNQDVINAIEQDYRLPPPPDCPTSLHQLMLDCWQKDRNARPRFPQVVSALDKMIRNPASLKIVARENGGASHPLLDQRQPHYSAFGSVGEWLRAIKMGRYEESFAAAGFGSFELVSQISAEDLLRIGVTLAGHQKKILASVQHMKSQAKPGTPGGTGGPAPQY
# Chain of PLK4 (human) (O00444 whole entry, looked up): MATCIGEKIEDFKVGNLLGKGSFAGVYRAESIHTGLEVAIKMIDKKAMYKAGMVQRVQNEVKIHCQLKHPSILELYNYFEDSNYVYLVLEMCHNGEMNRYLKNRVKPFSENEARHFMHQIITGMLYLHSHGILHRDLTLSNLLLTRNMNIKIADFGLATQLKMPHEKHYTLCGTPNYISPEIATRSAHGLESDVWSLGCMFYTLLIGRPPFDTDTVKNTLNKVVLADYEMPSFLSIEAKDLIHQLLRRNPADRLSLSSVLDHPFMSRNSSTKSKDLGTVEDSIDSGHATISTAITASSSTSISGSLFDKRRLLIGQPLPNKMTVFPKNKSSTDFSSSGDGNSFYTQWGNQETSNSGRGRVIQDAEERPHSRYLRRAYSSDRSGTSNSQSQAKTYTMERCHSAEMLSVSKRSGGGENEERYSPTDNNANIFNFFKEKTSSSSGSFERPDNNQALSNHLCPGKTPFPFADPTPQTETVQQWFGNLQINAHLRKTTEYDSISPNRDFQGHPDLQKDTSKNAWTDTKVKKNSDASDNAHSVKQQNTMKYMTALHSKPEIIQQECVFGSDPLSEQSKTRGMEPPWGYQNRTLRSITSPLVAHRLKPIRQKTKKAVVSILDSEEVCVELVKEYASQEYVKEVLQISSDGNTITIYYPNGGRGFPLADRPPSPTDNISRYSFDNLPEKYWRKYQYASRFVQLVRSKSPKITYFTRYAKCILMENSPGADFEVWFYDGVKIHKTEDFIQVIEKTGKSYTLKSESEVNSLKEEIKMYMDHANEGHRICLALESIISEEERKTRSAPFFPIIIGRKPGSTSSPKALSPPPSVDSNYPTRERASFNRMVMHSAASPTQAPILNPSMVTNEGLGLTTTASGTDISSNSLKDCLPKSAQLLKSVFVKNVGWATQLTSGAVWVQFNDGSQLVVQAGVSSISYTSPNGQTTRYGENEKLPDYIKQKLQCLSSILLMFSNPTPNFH
"kinase still bound, per cent of control (NUAK2 (human)) [%]","kinase still bound, per cent of control (CAMK2D (human)) [%]","kinase still bound, per cent of control (MAP3K9 (human)) [%]","kinase still bound, per cent of control (AAK1 (human)) [%]","kinase still bound, per cent of control (NLK (human)) [%]","kinase still bound, per cent of control (RPS6KA2 KD2 (human)) [%]","kinase still bound, per cent of control (NTRK2 (human)) [%]","kinase still bound, per cent of control (STK32B (human)) [%]","kinase still bound, per cent of control (STK32C (human)) [%]","kinase still bound, per cent of control (CLK4 (human)) [%]","kinase still bound, per cent of control (BTK (human)) [%]","kinase still bound, per cent of control (AKT3 (human)) [%]","kinase still bound, per cent of control (PTK2 (human)) [%]","kinase still bound, per cent of control (ABL2 (human)) [%]","kinase still bound, per cent of control (EPHA7 (human)) [%]","kinase still bound, per cent of control (PTK2B (human)) [%]","kinase still bound, per cent of control (EPHB4 (human)) [%]","kinase still bound, per cent of control (RAF1 (human)) [%]","kinase still bound, per cent of control (STK4 (human)) [%]","kinase still bound, per cent of control (PLK4 (human)) [%]",also measured,SMILES
25,100,100,100,100,100,23,100,100,33,2.6,100,100,100,100,100,100,100,100,100,"kinase still bound, per cent of control (SRPK3 (human)): 100%; kinase still bound, per cent of control (ULK3 (human)): 100%; kinase still bound, per cent of control (NTRK1 (human)): 20%; kinase still bound, per cent of control (GSK3A (human)): 100%; kinase still bound, per cent of control (FGFR4 (human)): 100%; kinase still bound, per cent of control (YES1 (human)): 12%; kinase still bound, per cent of control (PKN1 (human)): 100%; kinase still bound, per cent of control (SRC (human)): 1.2%; kinase still bound, per cent of control (MARK1 (human)): 100%; kinase still bound, per cent of control (PIK3CG (human)): 100%; kinase still bound, per cent of control [1]: 100%; kinase still bound, per cent of control (MAP4K3 (human)): 100%",COc1cc(C)c(Sc2cnc(NC(=O)c3ccc(CNC(C)C(C)C)cc3)s2)cc1C(=O)N1CCN(C(C)=O)CC1 (configuration not stated)
100,100,100,100,100,18,100,3.7,33,5.5,26,100,0,100,15,0.15,100,100,100,2.8,"kinase still bound, per cent of control (SRPK3 (human)): 100%; kinase still bound, per cent of control (ULK3 (human)): 100%; kinase still bound, per cent of control (NTRK1 (human)): 100%; kinase still bound, per cent of control (GSK3A (human)): 100%; kinase still bound, per cent of control (FGFR4 (human)): 100%; kinase still bound, per cent of control (YES1 (human)): 100%; kinase still bound, per cent of control (PKN1 (human)): 100%; kinase still bound, per cent of control (SRC (human)): 23%; kinase still bound, per cent of control (MARK1 (human)): 100%; kinase still bound, per cent of control (PIK3CG (human)): 100%; kinase still bound, per cent of control [1]: 100%; kinase still bound, per cent of control (MAP4K3 (human)): 100%",COc1cc(N2CCC(C(N)=O)CC2)ccc1Nc1nc(N)c(Cl)c(Nc2ccccc2S(=O)(=O)C(C)C)n1
100,100,100,100,30,100,24,100,100,100,1.4,100,4.6,0.35,0.6,0.9,0.3,23,100,100,"kinase still bound, per cent of control (NTRK1 (human)): 27%; kinase still bound, per cent of control (GSK3A (human)): 100%; kinase still bound, per cent of control (FGFR4 (human)): 0.4%; kinase still bound, per cent of control (YES1 (human)): 0.45%; kinase still bound, per cent of control (PKN1 (human)): 100%; kinase still bound, per cent of control (SRC (human)): 0.15%; kinase still bound, per cent of control (MARK1 (human)): 100%; kinase still bound, per cent of control (MAP4K3 (human)): 100%",COc1ccc(N(C(=O)Oc2cc(C(=O)Nc3cccc(C(F)(F)F)c3)ccc2C)c2ccnc(Nc3ccc(N4CCN(C)CC4)cc3)n2)c(OC)c1
